Tests used:
Format in all cases: in vivo, mice
cleaved caspase-3 = assay: Western blot, injured cortex; details: for decrease of cleaved caspase-3 level versus vehicle: 20 mg/kg ip 10 min after CCI, P<0.05
Protocol: Three sets of experiments were performed. The first set was to investigate the protective effects of salidroside. All animals were randomized into 1 of 3 groups (sham injury, CCI + vehicle, CCI + SALD 20). Surgery/injury, behavioral testing, and tissue analyses were performed by different individuals. Behavioral testing and tissue analyses were performed by individuals blinded to the treatment group. Salidroside (Cayman Chemical, Ann Arbor, MI, USA) dissolved in normal saline (0.25 mL) or a corresponding volume of vehicle (saline) was administered intraperitoneally 10 min following injury. Testing after injury was completed as follows: 1) behavioral testing at days 1, 4, 7, 14, 21, and 28 (n = 8–10 mice/group); 2) cresyl violet staining at day 28 (n = 9 mice/group); 3) histology, determination of brain water content, and western blot analysis at day 1 or 3 (n = 5–6 mice/group). To determine the optimal dose of salidroside, a pilot study was performed using 2 different doses (20 and 50 mg/kg) administered 10 min after injury, and neurological deficits and tissue damage were evaluated as the main outcomes. […] The second set of experiment was to assess the effect of the inhibition of PI3K/Akt with the specific PI3K inhibitor, LY294002 (Cell Signaling Technology, Danvers, MA, USA), on salidroside effects. Animals were randomized into 4 groups. Mice received either: 1) icv pretreatment of LY294002 followed by SALD 20 after CCI (S20Y group); or 2) icv pretreatment of saline (vehicle control) followed by SALD 20 after CCI (S20V group). 3) Mice were infused icv with saline and were subjected to sham injury. 4) Mice were infused icv with LY294002 and were subjected to sham injury. […] Protein concentration was determined by Bradford reagent spectrophotometrically at A595. […] The relative intensity of protein signals was normalized to the corresponding β-actin intensity and was quantified by densitometric analysis with the use of Image J software.

cytosolic CytoC = assay: Western blot, cytosolic fraction of injured cortex; details: 20 mg/kg ip 10 min after CCI
Protocol: (§1) Three sets of experiments were performed. The first set was to investigate the protective effects of salidroside. All animals were randomized into 1 of 3 groups (sham injury, CCI + vehicle, CCI + SALD 20). Surgery/injury, behavioral testing, and tissue analyses were performed by different individuals. Behavioral testing and tissue analyses were performed by individuals blinded to the treatment group. Salidroside (Cayman Chemical, Ann Arbor, MI, USA) dissolved in normal saline (0.25 mL) or a corresponding volume of vehicle (saline) was administered intraperitoneally 10 min following injury. Testing after injury was completed as follows: 1) behavioral testing at days 1, 4, 7, 14, 21, and 28 (n = 8–10 mice/group); 2) cresyl violet staining at day 28 (n = 9 mice/group); 3) histology, determination of brain water content, and western blot analysis at day 1 or 3 (n = 5–6 mice/group). To determine the optimal dose of salidroside, a pilot study was performed using 2 different doses (20 and 50 mg/kg) administered 10 min after injury, and neurological deficits and tissue damage were evaluated as the main outcomes. […] The second set of experiment was to assess the effect of the inhibition of PI3K/Akt with the specific PI3K inhibitor, LY294002 (Cell Signaling Technology, Danvers, MA, USA), on salidroside effects. Animals were randomized into 4 groups. Mice received either: 1) icv pretreatment of LY294002 followed by SALD 20 after CCI (S20Y group); or 2) icv pretreatment of saline (vehicle control) followed by SALD 20 after CCI (S20V group). 3) Mice were infused icv with saline and were subjected to sham injury. 4) Mice were infused icv with LY294002 and were subjected to sham injury. Testing after injury was completed as follows: 1) cresyl violet staining at day 28 (n = 6 mice/group); 2) western blot analysis at day 1 (n = 6 mice/group). The third set of experiment was performed to examine the neuroprotective time window afforded by salidroside. Mice received intraperitoneal SALD 20 or vehicle (saline) at 3 or 6 h following CCI and were sacrificed 1 day later for FJB staining and western blot analysis (n = 6 mice/group). Brains of injured or sham animals were collected 1 day and 3 days post CCI or sham surgery, and a 4 mm coronal section from the injured area over the parietal cortex and ipsilateral hippocampus were collected. […] Protein concentration was determined by Bradford reagent spectrophotometrically at A595. […] The relative intensity of protein signals was normalized to the corresponding β-actin intensity and was quantified by densitometric analysis with the use of Image J software. […]

cytosolic Smac/DIABLO = assay: Western blot, cytosolic fraction of injured cortex; details: 20 mg/kg ip 10 min after CCI, P<0.05
Protocol: as §1

OC[C@H]1O[C@@H](OCCc2ccc(O)cc2)[C@H](O)[C@@H](O)[C@@H]1O [SALD, salidroside]
decrease of cleaved caspase-3 level versus vehicle (cleaved caspase-3; day 1): 49.6%
decrease of cleaved caspase-3 level versus vehicle (cleaved caspase-3; day 3): 34.9%
reduction of cleaved caspase-3 level (cleaved caspase-3; 20 mg/kg ip 3 h after injury, day 1): 34.1%
cytosolic CytoC level compared to vehicle-treated injured brains (cytosolic CytoC; day 1, P<0.01): 60.6%
cytosolic CytoC level compared to vehicle-treated injured brains (cytosolic CytoC; day 3, P<0.05): 54.7%
cytosolic Smac/DIABLO level compared to vehicle-treated injured brains (cytosolic Smac/DIABLO; day 1): 45.1%
cytosolic Smac/DIABLO level compared to vehicle-treated injured brains (cytosolic Smac/DIABLO; day 3): 58.1%

— PMC3454376, “Salidroside Improves Behavioral and Histological Outcomes and Reduces Apoptosis via PI3K/Akt Signaling after Experimental Traumatic Brain Injury” (PLoS ONE, 2012)
